Literature values as cited in US12090135B2, “Neutral pH compositions of docetaxel and human serum albumin” (Zhuhai Beihai Biotech Co., Ltd., priority 2016, dated 2024).
Entries after “also recorded” stand apart in the source; their conditions may differ.

How the values were obtained:
[1] = test system: microtubule depolymerization

in vitro binding to plasma proteins (plasma proteins; in three cancer patients): approximately 97%
protein bound (plasma proteins; in vitro studies, mainly to al-acid glycoprotein, albumin, and lipoproteins): about 94%
Compound: CC(=O)O[C@@]12CO[C@@H]1C[C@H](O)[C@@]1(C)C(=O)[C@H](O)C3=C(C)[C@@H](OC(=O)[C@H](O)[C@@H](NC(=O)OC(C)(C)C)c4ccccc4)C[C@@](O)([C@@H](OC(=O)c4ccccc4)[C@H]21)C3(C)C [Docetaxel]
Water solubility: practically insoluble in water; also recorded: very poor water solubility
Potency in inhibiting microtubule depolymerization relative to paclitaxel [1]: about twice as potent as paclitaxel
